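Protocol summary: plate cells (96-well), add compound at 5 concentrations, incubate 48 h, interpolate endpoints linearly. Here, GI50 denotes the concentration required for 50% inhibition of growth. TGI: total growth inhibition.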 Where a SMILES comes first, the peptide text is derived from it. [ ]: non-standard residue; d: D form. Ava = NCCCCC(=O)O; Mpa = O=C(O)CCS
Key:
Experiment in all cases: growth of human tumour cells (NCI), 48 h
[1] = test system: COLO 205 colon
[2] = test system: DU-145 prostate
[3] = test system: HCC-2998 colon
[4] = test system: M14 melanoma
[5] = test system: MDA-MB-231 breast
[6] = test system: OVCAR-3 ovarian
[7] = test system: OVCAR-4 ovarian
[8] = test system: RXF 393 renal
[9] = test system: UO-31 renal

Structure (SMILES)	TGI [1]	TGI [2]	TGI [3]	TGI [4]	TGI [5]	TGI [6]	TGI [7]	TGI [8]	TGI [9]	GI50 [1]	GI50 [2]	GI50 [3]	GI50 [5]	GI50 [6]	GI50 [7]	GI50 [8]
O=S1(=O)OCCOS(=O)(=O)C1(F)Cc1ccccc1	> 100 µM	> 100 µM	> 100 µM	> 100 µM	> 100 µM	> 100 µM	> 100 µM	> 100 µM	> 100 µM							
CN1C/C(=C\c2cccs2)C2=NN(c3ccccc3)C(c3cccs3)C2C1 (stereo unspecified)	> 100 µM	> 58.2 µM	> 100 µM	> 68.3 µM	98.7 µM	> 21.8 µM	> 100 µM		> 100 µM							
O=C1C=C(NCCc2ccc(O)c([N+](=O)[O-])c2)C(=O)c2[nH]cnc21	> 100 µM		> 100 µM	32.3 µM	> 100 µM	46.1 µM			> 100 µM							
O=C(CC(C(=O)c1ccsc1)c1cccs1)c1ccccc1 (stereo unspecified)	> 100 µM	> 100 µM	> 100 µM	> 100 µM	> 100 µM	> 100 µM	67.3 µM	> 100 µM	76.3 µM							
O=C(CCCc1cccc2[nH]c3c(c12)CN(Cc1ccccc1)CC3)c1ccc(F)cc1	31.4 µM	> 100 µM	38.5 µM	> 100 µM	> 100 µM	> 100 µM	> 100 µM	> 100 µM	> 100 µM							
Cc1cccc2c(=O)c3cccc([C@H](C)C(=O)O)c3oc12	> 100 µM	> 100 µM	> 100 µM	> 100 µM	> 100 µM	> 100 µM	> 100 µM		> 100 µM							
CCOC(=O)/C(C(N)=O)=C(\O)C(=O)/C=C(\O)c1ccc(Cl)cc1	32.6 µM	35.8 µM		48.3 µM	32.2 µM	66.4 µM	> 100 µM	32.2 µM	33.4 µM							
CC(=O)OCC1OC(n2c(C)c(C)cc(C#N)c2=S)C(OC(C)=O)C(OC(C)=O)C1OC(C)=O (stereo unspecified)		> 100 µM	> 100 µM	> 100 µM	> 100 µM	> 100 µM	> 100 µM	> 100 µM	> 100 µM							
O=C(N/N=C\c1ccc(Cl)cc1)Nc1ccc2ccccc2c1	> 100 µM	> 100 µM	> 100 µM	> 100 µM	> 100 µM	> 100 µM	39.2 µM	> 100 µM	> 100 µM							
COc1cc(/C=C2\C(=O)N(c3cccc(NC(C)=O)c3)C(c3ccccc3)S2(=O)=O)cc(OC)c1OC (stereo unspecified)	> 100 µM	> 100 µM	> 100 µM	> 100 µM	> 100 µM	> 100 µM	> 100 µM	> 100 µM	> 100 µM							
CC(NC(=O)CCS)C(=O)NC(C)C(=O)NC(Cc1c[nH]c2ccccc12)C(=O)NC(Cc1c[nH]cn1)C(=O)NC(CO)C(=O)NC(Cc1c[nH]c2ccccc12)C(=O)NCCCCC(=O)NC(C)C(=O)NC(CCC(N)=O)C(=O)NC(CCCCN)C(=O)NC(C)C(=O)NC(CCCNC(=N)N)C(=O)NC(CCCCN)C(N)=O (stereo unspecified) ([Mpa]AAWHSW[Ava]AQKARK-NH2; configuration not given here)	> 100 µM	> 100 µM		> 100 µM	> 100 µM	> 100 µM	> 100 µM	> 100 µM	> 100 µM							
CC(=O)C1=C(C)N(c2ccccc2)C2(O)C3=C(C(=O)c4ccccc4C3=O)C(O)=CC12Cl (stereo unspecified)	> 100 µM	> 100 µM	25.9 µM	> 100 µM	> 100 µM	> 100 µM	14.5 µM	25.6 µM	26.7 µM							
CC(C)(C)OC(=O)NC(CSCc1ccc(C(=O)c2ccccc2)cc1)C(=O)N1CCN(CCCCN2c3ccccc3Sc3cc(N=[N+]=[N-])ccc32)CC1 (stereo unspecified)	> 100 µM	> 100 µM	> 100 µM	> 100 µM	> 100 µM	> 100 µM	> 100 µM	> 100 µM	> 100 µM							
COc1cc2c(cc1OC)C(CCN)=NCC2	27.4 µM	32.9 µM		32.8 µM	30.8 µM	35.2 µM	47.4 µM	30.4 µM	4.2 µM							
COc1ccc(SCc2cc(OC)ccc2OC)cc1	> 61 µM	> 100 µM	37 µM	> 100 µM	> 100 µM	> 91.7 µM	> 100 µM	> 100 µM	> 100 µM							
CCN(CC)CCC(=O)/C=C/c1ccc(Cl)c(Cl)c1	> 10 µM	> 10 µM	> 10 µM	> 10 µM	> 10 µM	> 10 µM	> 10 µM									
CC1OC(NCCNCCNC2OC(C)C(O)C(O)C2O)C(O)C(O)C1O (stereo unspecified)	> 100 µM	> 100 µM		> 100 µM	> 100 µM	> 100 µM	> 100 µM	> 100 µM	> 100 µM							
CC1=NNC(=O)C1C1(C(=O)O)CC(c2c[nH]c3ccccc23)=NC(=S)N1 (stereo unspecified)	34.1 µM	> 100 µM		37.9 µM	81.7 µM	65.8 µM		94.3 µM	> 100 µM							
Cc1nc2c(Cl)cc(Cl)cc2c2c1CCO2	> 100 µM	> 100 µM	> 100 µM	> 100 µM	> 100 µM		> 100 µM	> 100 µM	> 100 µM							
CCOC(=O)NC(Nc1ccc(F)cc1F)(C(F)(F)F)C(F)(F)F	> 100 µM	> 100 µM	> 100 µM	> 100 µM	> 100 µM	> 100 µM		> 100 µM	> 100 µM							
O=C1c2c(c3c4cc(F)ccc4oc3c3[nH]c4ccccc4c23)C(=O)N1O	> 100 µM	> 100 µM	> 100 µM		21.6 µM	7.96 µM	> 100 µM	6.85 µM		4.15 µM	2.15 µM	2.53 µM	2.68 µM	2.53 µM	4.82 µM	1.92 µM
CC(O)C(CO)NC(=O)C1CSSCC(NC(=O)C(N)Cc2ccccc2)C(=O)NC(Cc2ccccc2)C(=O)NC(Cc2c[nH]c3ccccc23)C(=O)NC(CCCCN)C(=O)NC(C(C)O)C(=O)N1 (stereo unspecified)	> 100 µM	> 100 µM		> 100 µM	> 100 µM	> 100 µM	> 100 µM	> 100 µM	> 100 µM							
